Molecular target: JAK1 (Homo sapiens (Human), UniProt P23458)
Experiment: Analysis of JAK1 activity inhibition ability (ADP-Glo Kinase Assay)
Type: biochemical
Conditions: JAK1 enzyme, ADP-Glo luminescence, ATP 250 uM, IRS-itide substrate, 30° C. 40 minutes; read-out: IC50
Outline: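 JAK1 enzyme, IRS-itide substrate (40 ng/mL) and 250 uM ATP, both as prepared in kinase buffer (Tris-HCl pH 7.5, MgCl2, BSA, DTT), reacted with compound 40 min at 30 °C. ADP formed was detected by ADP-Glo luminescence; IC50 is the concentration giving 50% inhibition versus control.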

Sequence of JAK1 (P23458 whole entry): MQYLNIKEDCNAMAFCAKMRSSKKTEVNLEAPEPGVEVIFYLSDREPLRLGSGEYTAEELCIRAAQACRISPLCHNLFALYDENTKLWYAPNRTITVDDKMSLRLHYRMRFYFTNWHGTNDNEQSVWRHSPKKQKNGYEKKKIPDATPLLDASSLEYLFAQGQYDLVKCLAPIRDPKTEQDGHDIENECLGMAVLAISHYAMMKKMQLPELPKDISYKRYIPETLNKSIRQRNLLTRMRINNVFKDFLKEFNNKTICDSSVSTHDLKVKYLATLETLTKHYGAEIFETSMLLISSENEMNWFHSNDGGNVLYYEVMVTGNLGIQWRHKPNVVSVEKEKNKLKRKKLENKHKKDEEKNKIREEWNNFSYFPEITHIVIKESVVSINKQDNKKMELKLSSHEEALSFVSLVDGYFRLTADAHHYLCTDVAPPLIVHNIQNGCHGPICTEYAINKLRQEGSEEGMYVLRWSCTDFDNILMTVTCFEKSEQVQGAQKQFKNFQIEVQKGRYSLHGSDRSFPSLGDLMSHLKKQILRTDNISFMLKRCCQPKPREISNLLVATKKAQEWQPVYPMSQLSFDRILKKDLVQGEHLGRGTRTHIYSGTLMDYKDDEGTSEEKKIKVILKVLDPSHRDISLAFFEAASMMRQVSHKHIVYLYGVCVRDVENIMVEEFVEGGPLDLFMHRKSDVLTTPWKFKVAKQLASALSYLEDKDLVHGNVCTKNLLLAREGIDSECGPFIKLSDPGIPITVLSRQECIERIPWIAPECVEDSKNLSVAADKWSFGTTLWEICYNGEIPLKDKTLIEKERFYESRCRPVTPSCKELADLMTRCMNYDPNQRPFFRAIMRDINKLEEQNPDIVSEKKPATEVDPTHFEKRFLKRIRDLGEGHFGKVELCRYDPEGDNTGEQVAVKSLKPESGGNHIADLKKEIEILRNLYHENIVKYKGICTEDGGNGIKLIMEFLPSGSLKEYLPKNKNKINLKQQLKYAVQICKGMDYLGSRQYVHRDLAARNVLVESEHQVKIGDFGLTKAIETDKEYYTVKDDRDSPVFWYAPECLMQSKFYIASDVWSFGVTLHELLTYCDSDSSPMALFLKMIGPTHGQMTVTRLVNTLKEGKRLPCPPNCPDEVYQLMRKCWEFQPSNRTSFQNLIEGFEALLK

| Compound | IC50 [µM] |
| --- | --- |
| CC1CN(C(=O)c2ccc3c(c2)OCO3)CC=C1c1cc(NC(=O)C2CC2)nc2[nH]ccc12 (stereo not shown) [Example 326, N-(4-(1-(benzo[d][1,3]dioxole-5-carbonyl)-3-methyl-1,2,3,6-tetrahydropyridin-4-yl)-1H-pyrrolo[2,3-b]pyridin-6-yl)cyclopropanecarboxamide] | 0.02 to 0.2 |
| CC1CN(C(=O)c2ccc3cc[nH]c3c2)CC=C1c1cc(NC(=O)C2CC2)nc2[nH]ccc12 (stereo not shown) [Example 327, N-(4-(1-(1H-indole-6-carbonyl)-3-methyl-1,2,3,6-tetrahydropyridin-4-yl)-1H-pyrrolo[2,3-b]pyridin-6-yl)cyclopropanecarboxamide] | 0.02 to 0.2 |
| CC1CN(C(=O)c2ccnc3[nH]ccc23)CC=C1c1cc(NC(=O)C2CC2)nc2[nH]ccc12 (stereo not shown) [Example 328, N-(4-(3-methyl-1-(1H-pyrrolo[2,3-b]pyridine-4-carbonyl)-1,2,3,6-tetrahydropyridin-4-yl)-1H-pyrrolo[2,3-b]pyridin-6-yl)cyclopropanecarboxamide] | 0.02 to 0.2 |
| COc1ccc(C(=O)N2CC=C(c3cc(NC(=O)C4CC4)nc4[nH]ccc34)C(C)C2)cc1OC (stereo not shown) [Example 329, N-(4-(1-(3,4-dimethoxybenzoyl)-3-methyl-1,2,3,6-tetrahydropyridin-4-yl)-1H-pyrrolo[2,3-b]pyridin-6-yl)cyclopropanecarboxamide] | 0.02 to 0.2 |
| COc1cccc(C(=O)N2CC=C(c3cc(NC(=O)C4CC4)nc4[nH]ccc34)C(C)C2)c1 (stereo not shown) [Example 330, N-(4-(1-(3-methoxybenzoyl)-3-methyl-1,2,3,6-tetrahydropyridin-4-yl)-1H-pyrrolo[2,3-b]pyridin-6-yl)cyclopropanecarboxamide] | 0.02 to 0.2 |
| CC1CN(C(=O)c2ccc([N+](=O)[O-])cc2)CC=C1c1cc(NC(=O)C2CC2)nc2[nH]ccc12 (stereo not shown) [Example 331, N-(4-(3-methyl-1-(4-nitrobenzoyl)-1,2,3,6-tetrahydropyridin-4-yl)-1H-pyrrolo[2,3-b]pyridin-6-yl)cyclopropanecarboxamide] | 0.02 to 0.2 |
| CC(=O)c1cccc(C(=O)N2CC=C(c3cc(NC(=O)C4CC4)nc4[nH]ccc34)C(C)C2)c1 (stereo not shown) [Example 332, N-(4-(1-(3-acetylbenzoyl)-3-methyl-1,2,3,6-tetrahydropyridin-4-yl)-1H-pyrrolo[2,3-b]pyridin-6-yl)cyclopropanecarboxamide] | > 0.2 |
| CC1CN(C(=O)c2ccc(Cl)cc2)CC=C1c1cc(NC(=O)C2CC2)nc2[nH]ccc12 (stereo not shown) [Example 333, N-(4-(1-(4-chlorobenzoyl)-3-methyl-1,2,3,6-tetrahydropyridin-4-yl)-1H-pyrrolo[2,3-b]pyridin-6-yl)cyclopropanecarboxamide] | 0.02 to 0.2 |
| CC1CN(C(=O)c2cccc(Br)c2)CC=C1c1cc(NC(=O)C2CC2)nc2[nH]ccc12 (stereo not shown) [Example 334, N-(4-(1-(3-bromobenzoyl)-3-methyl-1,2,3,6-tetrahydropyridin-4-yl)-1H-pyrrolo[2,3-b]pyridin-6-yl)cyclopropanecarboxamide] | 0.02 to 0.2 |
| CC1CN(C(=O)c2ccc(Cl)nc2)CC=C1c1cc(NC(=O)C2CC2)nc2[nH]ccc12 (stereo not shown) [Example 335, N-(4-(1-(6-chloronicotinoyl)-3-methyl-1,2,3,6-tetrahydropyridin-4-yl)-1H-pyrrolo[2,3-b]pyridin-6-yl)cyclopropanecarboxamide] | 0.02 to 0.2 |
| CC1CN(C(=O)c2ccncc2)CC=C1c1cc(NC(=O)C2CC2)nc2[nH]ccc12 (stereo not shown) [Example 336, N-(4-(1-isonicotinoyl-3-methyl-1,2,3,6-tetrahydropyridin-4-yl)-1H-pyrrolo[2,3-b]pyridin-6-yl)cyclopropanecarboxamide] | 0.02 to 0.2 |
| CC1CN(C(=O)c2cccc(Br)n2)CC=C1c1cc(NC(=O)C2CC2)nc2[nH]ccc12 (stereo not shown) [Example 337, N-(4-(1-(6-bromopicolinoyl)-3-methyl-1,2,3,6-tetrahydropyridin-4-yl)-1H-pyrrolo[2,3-b]pyridin-6-yl)cyclopropanecarboxamide] | 0.02 to 0.2 |
| CC(Br)CC(=O)N1CC=C(c2cc(NC(=O)C3CC3)nc3[nH]ccc23)C(C)C1 (stereo not shown) [Example 338, N-(4-(1-(3-bromobutanoyl)-3-methyl-1,2,3,6-tetrahydropyridin-4-yl)-1H-pyrrolo[2,3-b]pyridin-6-yl)cyclopropanecarboxamide] | 0.02 to 0.2 |
| CC1CN(C(=O)/C=C/CCBr)CC=C1c1cc(NC(=O)C2CC2)nc2[nH]ccc12 (stereo not shown) [Example 339, (E)-N-(4-(1-(5-bromopent-2-enoyl)-3-methyl-1,2,3,6-tetrahydropyridin-4-yl)-1H-pyrrolo[2,3-b]pyridin-6-yl)cyclopropanecarboxamide] | 0.02 to 0.2 |
| CC1CN(C(=O)CC2CCCC2)CC=C1c1cc(NC(=O)C2CC2)nc2[nH]ccc12 (stereo not shown) [Example 340, N-(4-(1-(2-cyclopentylacetyl)-3-methyl-1,2,3,6-tetrahydropyridin-4-yl)-1H-pyrrolo[2,3-b]pyridin-6-yl)cyclopropanecarboxamide] | 0.02 to 0.2 |
| COc1ccc(CC(=O)N2CC=C(c3cc(NC(=O)C4CC4)nc4[nH]ccc34)C(C)C2)cc1 (stereo not shown) [Example 341, N-(4-(1-(2-(4-methoxyphenyl)acetyl)-3-methyl-1,2,3,6-tetrahydropyridin-4-yl)-1H-pyrrolo[2,3-b]pyridin-6-yl)cyclopropanecarboxamide] | > 0.2 |
| Cc1ccsc1C(=O)N1CC=C(c2cc(NC(=O)C3CC3)nc3[nH]ccc23)C(C)C1 (stereo not shown) [Example 342, N-(4-(3-methyl-1-(3-methylthiophene-2-carbonyl)-1,2,3,6-tetrahydropyridin-4-yl)-1H-pyrrolo[2,3-b]pyridin-6-yl)cyclopropanecarboxamide] | 0.02 to 0.2 |
| CC1CN(C(=O)c2cnccn2)CC=C1c1cc(NC(=O)C2CC2)nc2[nH]ccc12 (stereo not shown) [Example 343, N-(4-(3-methyl-1-(pyrazine-2-carbonyl)-1,2,3,6-tetrahydropyridin-4-yl)-1H-pyrrolo[2,3-b]pyridin-6-yl)cyclopropanecarboxamide] | 0.02 to 0.2 |
| Cc1cnc(C(=O)N2CC=C(c3cc(NC(=O)C4CC4)nc4[nH]ccc34)C(C)C2)cn1 (stereo not shown) [Example 344, N-(4-(3-methyl-1-(5-methylpyrazine-2-carbonyl)-1,2,3,6-tetrahydropyridin-4-yl)-1H-pyrrolo[2,3-b]pyridin-6-yl)cyclopropanecarboxamide] | > 0.2 |
| CC1CN(C(=O)Cc2cccs2)CC=C1c1cc(NC(=O)C2CC2)nc2[nH]ccc12 (stereo not shown) [Example 345, N-(4-(3-methyl-1-(2-(thiophen-2-yl)acetyl)-1,2,3,6-tetrahydropyridin-4-yl)-1H-pyrrolo[2,3-b]pyridin-6-yl)cyclopropanecarboxamide] | 0.02 to 0.2 |
| CC1CN(C(=O)Cc2cccc(F)c2)CC=C1c1cc(NC(=O)C2CC2)nc2[nH]ccc12 (stereo not shown) [Example 346, N-(4-(1-(2-(3-fluorophenyl)acetyl)-3-methyl-1,2,3,6-tetrahydropyridin-4-yl)-1H-pyrrolo[2,3-b]pyridin-6-yl)cyclopropanecarboxamide] | 0.02 to 0.2 |
| CC1CN(C(=O)Cc2cccc(Br)c2)CC=C1c1cc(NC(=O)C2CC2)nc2[nH]ccc12 (stereo not shown) [Example 347, N-(4-(1-(2-(3-bromophenyl)acetyl)-3-methyl-1,2,3,6-tetrahydropyridin-4-yl)-1H-pyrrolo[2,3-b]pyridin-6-yl)cyclopropanecarboxamide] | 0.02 to 0.2 |

— patent US11524968B2, “Heterocyclic compound as a protein kinase inhibitor” (HK inno.N Corporation, priority 2017, dated 2022)
